Experimental data from BigSolDB 2.1.

Cn1c(=O)cc(N2CCC[C@@H](N)C2)n(Cc2ccccc2C#N)c1=O.O=C(O)c1ccccc1
solubility (mole fraction)
Details	278.15 K	283.15 K	288.15 K	293.15 K	298.15 K	303.15 K	308.15 K	313.15 K	318.15 K
in DMF	0.00568	0.00686	0.00824	0.00984	0.0117	0.0138	0.0162	0.019	0.0222
in acetone	0.00259	0.00293	0.00331	0.00373	0.00419	0.0047	0.00525	0.00587	0.00654
in acetonitrile	0.000102	0.000145	0.000175	0.000228	0.000292	0.000368	0.000475	0.000583	0.000725
in ethanol	0.000355	0.000447	0.000554	0.000682	0.000822	0.00102	0.00122	0.00147	0.00176
in isopropanol	1.9e-05	3e-05	4.2e-05	6.3e-05	8.8e-05	0.000127	0.000175	0.000244	0.000334
in methanol	0.00239	0.00269	0.00302	0.00339	0.00379	0.00423	0.00472	0.00525	0.00583
in n-propanol	6.1e-05	8.2e-05	0.000113	0.000156	0.000209	0.000278	0.000367	0.000477	0.000621
in water	0.000838	0.000915	0.000999	0.00109	0.00119	0.00129	0.0014	0.00153	0.00166
